Test [1] deals with CDK9/cyclin T1 (Homo sapiens) (UniProt O60563+P50750). The test is described as follows: Inhibition of against CDK9/cyclinT1 (unknown origin) at 10 uM using Ulight-CFFKNIVTPRTPPPSQGK-amide substrate and ATP incubated for 90 mins by fluorescence based assay. The format is protein-complex assay.
Test [2] concerns the target Cyclin-dependent kinase 2/cyclin E1 (Homo sapiens, UniProt P24941). Briefly: Inhibition of against CDK2/cyclinE1 (unknown origin) using Ulight-CFFKNIVTPRTPPPSQGK-amide substrate and ATP incubated for 15 mins by fluorescence based assay. The format is protein-complex assay.
In a further test the target is CDK9/cyclin T1 (Homo sapiens, UniProt P50750). The test is described as follows: Inhibition of against CDK9/cyclinT1 (unknown origin) using Ulight-CFFKNIVTPRTPPPSQGK-amide substrate and ATP incubated for 90 mins by fluorescence based assay. The format is protein-complex assay.
Chain of CDK9/cyclin T1 (O60563 whole entry): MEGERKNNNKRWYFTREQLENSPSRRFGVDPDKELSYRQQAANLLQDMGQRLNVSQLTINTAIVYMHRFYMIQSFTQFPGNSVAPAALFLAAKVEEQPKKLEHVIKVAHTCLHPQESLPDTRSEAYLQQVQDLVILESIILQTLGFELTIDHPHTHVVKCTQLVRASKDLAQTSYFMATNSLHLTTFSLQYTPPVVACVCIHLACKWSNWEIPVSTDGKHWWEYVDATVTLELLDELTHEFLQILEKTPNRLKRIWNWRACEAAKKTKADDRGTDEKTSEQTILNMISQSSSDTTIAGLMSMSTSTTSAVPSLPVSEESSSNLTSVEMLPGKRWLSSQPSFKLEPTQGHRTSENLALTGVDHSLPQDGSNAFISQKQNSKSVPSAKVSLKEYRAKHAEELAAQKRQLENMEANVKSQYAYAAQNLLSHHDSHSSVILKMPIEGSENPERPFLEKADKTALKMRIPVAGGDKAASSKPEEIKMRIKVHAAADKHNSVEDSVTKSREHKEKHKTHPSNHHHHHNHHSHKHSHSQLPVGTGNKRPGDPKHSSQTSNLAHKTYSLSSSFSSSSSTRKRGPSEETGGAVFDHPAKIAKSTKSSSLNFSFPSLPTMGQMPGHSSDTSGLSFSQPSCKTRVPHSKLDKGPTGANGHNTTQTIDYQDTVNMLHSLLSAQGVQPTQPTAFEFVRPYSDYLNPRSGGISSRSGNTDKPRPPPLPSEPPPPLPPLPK
Chain of CDK9/cyclin T1 (P50750 whole entry): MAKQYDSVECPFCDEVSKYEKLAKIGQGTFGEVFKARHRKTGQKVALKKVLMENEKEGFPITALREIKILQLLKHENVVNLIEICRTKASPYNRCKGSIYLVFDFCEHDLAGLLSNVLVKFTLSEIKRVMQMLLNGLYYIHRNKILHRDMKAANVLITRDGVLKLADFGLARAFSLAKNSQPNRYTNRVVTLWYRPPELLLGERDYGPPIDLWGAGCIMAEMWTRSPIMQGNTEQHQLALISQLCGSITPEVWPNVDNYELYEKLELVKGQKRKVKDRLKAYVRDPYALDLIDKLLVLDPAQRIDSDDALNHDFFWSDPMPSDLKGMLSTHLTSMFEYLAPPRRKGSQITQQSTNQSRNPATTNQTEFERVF
A short description of test [3]: Cytotoxicity against human HCT116 cells assessed as inhibition of cell growth by MTT assay. The format is functional, cell-based, HCT-116. For orientation: Formazan colour is commonly taken as a measure of viable cells.
In another test the test system is HepG2. The test is described as follows: Cytotoxicity against human HepG2 cells assessed as inhibition of cell growth by MTT assay. Type of test: functional, cell-based.
Test [4] is described as follows: Cytotoxicity against human BGC823 cells assessed as inhibition of cell growth by MTT assay. The format is functional, cell-based, BGC-823.
Test [5] in a line: Cytotoxicity against human […] cells assessed as inhibition of cell growth by MTT assay. The format is functional, cell-based.
For another test, the system named is A2780. The test is described as follows: Cytotoxicity against human A2780 cells assessed as inhibition of cell growth by MTT assay. The format is functional, cell-based.
Another test has as its system BGC-823. Briefly: Cytotoxicity against human BGC823 cells assessed as inhibition of cell growth at 10 uM by MTT assay. The format is functional, cell-based.
A further test is filed under the species Homo sapiens. Briefly: Selectivity index, ratio of IC50 for CDK2/cyclinE1 (unknown origin) to IC50 for CDK9/cyclinT1 (unknown origin).
[6] abbreviates: Homo sapiens, HCT-116, read-out: IC50.
[7] abbreviates: Homo sapiens, HepG2, read-out: IC50.
Where [8] appears, read: Homo sapiens, BGC-823, read-out: IC50.
Setting [9] is: Homo sapiens, A2780, read-out: IC50.

SMILES strings stand for the structures. The source made the active and inactive calls. The rule behind the calls is not given here. A value given as a limit tells only on which side of the number the result lay.

Data on 20 compounds can be found in ChEMBL document CHEMBL3421588, “Discovery of novel indirubin-3'-monoxime derivatives as potent inhibitors against CDK2 and CDK9” (Bioorg Med Chem Lett, 2015).

In [1], `O=C1Nc2cc(Cl)ccc2/C1=C1/Nc2cc(F)c(F)cc2/C1=N\O` yielded an inhibition of 59%.
In test [1], `COc1ccc2c(c1)/C(=C1/Nc3cc(F)c(F)cc3/C1=N\O)C(=O)N2` registered an inhibition of 81%. The results for the IC50 (in test [2]; on CDK9/cyclin T1) were 1100 nM and 1900 nM, respectively.
Turning to `O=C1Nc2ccc(F)cc2/C1=C1/Nc2cc(F)c(F)cc2/C1=N\O`, in test [1], the inhibition was 85%. Further, the IC50 in [2] is 2700 nM; against CDK9/cyclin T1 it was 1700 nM; in test [3] (setting [6]), 940 nM; with HepG2 (setting [7]) it was 2680 nM; in test [4] (setting [8]), 9.65 µM; in test [5] (Homo sapiens, read-out: IC50), 2720 nM. Moreover, the IC50 in the test on A2780 (setting [9]) came out at 2370 nM.
In test [1], `CN1C(=O)/C(=C2\Nc3cc(F)c(F)cc3\C2=N/O)c2ccccc21` came in with an inhibition of 52%. In addition, the 50% inhibitory concentration (IC50) stood at 2220 nM in test [3] (setting [6]); 2540 nM in the test with HepG2 (setting [7]); 9.2 µM in test [4] (setting [8]); 2770 nM in [5] (Homo sapiens, read-out: IC50); 4030 nM with A2780 (setting [9]).
Regarding `O=C1Nc2ccccc2/C1=C1/Nc2cc(F)c(F)cc2/C1=N\O`, in test [1], the inhibition came to 67%. Also, the half-inhibitory concentration (IC50) in test [3] (setting [6]) amounted to 2320 nM; with HepG2 (setting [7]) it was 1910 nM; in [4] (setting [8]) it was 6.45 µM; in test [5] (Homo sapiens, read-out: IC50) it was 3040 nM; in the test with A2780 (setting [9]) it was 2500 nM.
Regarding `O=C1Nc2c(Cl)cc(Cl)cc2/C1=C1/Nc2cc(F)c(F)cc2/C1=N\O`, in test [1], the inhibition was < 30%. Further, the IC50 entry (in [3] (hct-116); in the test on HepG2 (hepg2); in [4] (bgc-823); in test [5]; in the test on A2780 (a2780)) was “Not Active” throughout.
`O=C1Nc2c(cccc2C(F)(F)F)/C1=C1/Nc2cc(F)c(F)cc2/C1=N\O`: the inhibition in test [1] is < 30%. Further, the IC50 entry (in [3] (hct-116); with HepG2 (hepg2); in test [4] (bgc-823); in [5]; in the test with A2780 (a2780)) was “Not Active” in each case.
Turning to `O=C1Nc2ccc([N+](=O)[O-])cc2/C1=C1/Nc2ccc(OC(F)(F)F)cc2/C1=N\O`, the inhibition in [1] is < 30%. In addition, the IC50 result (in test [3] (hct-116); in the test on HepG2 (hepg2); in [4] (bgc-823); in [5]; in the test on A2780 (a2780)) was “Not Active” throughout.
In test [1], `O=C1Nc2ccc([N+](=O)[O-])cc2/C1=C1/Nc2cc(F)c(F)cc2/C1=N\O` displayed an inhibition of 89%. Moreover, the IC50 in test [2] came to 1000 nM; on CDK9/cyclin T1 it was 700 nM; in test [3] (setting [6]) it was 2160 nM; with HepG2 (setting [7]), 2450 nM; in test [4] (setting [8]), 6.14 µM; in test [5] (Homo sapiens, read-out: IC50) it was 2210 nM. The IC50 in the test with A2780 (setting [9]) is 2220 nM.
As to `CO/N=C1/C(=C2/C(=O)Nc3ccc(F)cc32)Nc2cc(F)c(F)cc21`, the inhibition in [1] is < 30%. The IC50 result (in test [3] (hct-116); in the test with HepG2 (hepg2); in test [4] (bgc-823); in test [5]; in the test on A2780 (a2780)) was “Not Active” each time.
Regarding `O=C1Nc2c(Cl)cccc2/C1=C1/Nc2cc(F)c(F)cc2/C1=N\O`, the inhibition in test [1] was < 30%. Also, the IC50 result (in [3] (hct-116); in the test with HepG2 (hepg2); in test [4] (bgc-823); in test [5]; in the test with A2780 (a2780)) was “Not Active” in each case.
`O=Nc1c(-c2c(O)[nH]c3ccccc23)[nH]c2ccccc12` [INDIRUBIN-3-MONOXIME] gave an inhibition in test [1] of 70%. In addition, the results for the IC50 (in [2]; against CDK9/cyclin T1) were 700 nM and 2400 nM, respectively.
`CO/N=C1/C(=C2/C(=O)Nc3ccc([N+](=O)[O-])cc32)Nc2cc(F)c(F)cc21`: the inhibition in test [1] is < 30%. The IC50 result (in [3] (hct-116); in the test with HepG2 (hepg2); in [4] (bgc-823); in test [5]; in the test on A2780 (a2780)) was “Not Active” each time.
In test [1], `COc1ccc2c(c1)/C(=C1/Nc3cc(F)c(F)cc3/C1=N\OCCO)C(=O)N2` gave an inhibition of 84%. For the same compound, the half-maximal inhibitory concentration (IC50) is 400 nM in test [2] and 300 nM against CDK9/cyclin T1.
`Cc1ccc2c(c1)/C(=C1/Nc3cc(F)c(F)cc3/C1=N\O)C(=O)N2` showed an inhibition in test [1] of 65%.
As to `COc1ccc2c(c1)/C(=C1/Nc3ccc(OC(F)(F)F)cc3/C1=N\O)C(=O)N2`, the inhibition in test [1] was < 30%. The concentration for half-maximal inhibition (IC50) result (in test [3] (hct-116); with HepG2 (hepg2); in [4] (bgc-823); in test [5]; in the test on A2780 (a2780)) was “Not Active” throughout.
`O=C1Nc2ccc(OC(F)(F)F)cc2/C1=C1/Nc2cc(F)c(F)cc2/C1=N\O` had an inhibition in test [1] of 74%. The IC50 came out at 4100 nM in test [2] and 5600 nM on CDK9/cyclin T1.
Take `O=C1Nc2ccc(F)cc2/C1=C1/Nc2ccc(OC(F)(F)F)cc2/C1=N\O`: the inhibition in [1] was < 30%. The IC50 entry (in test [3] (hct-116); with HepG2 (hepg2); in test [4] (bgc-823); in [5]; in the test with A2780 (a2780)) was “Not Active” in each case.
In test [1], `Nc1ccc2c(c1)/C(=C1/Nc3cc(F)c(F)cc3/C1=N\O)C(=O)N2` had an inhibition of 60%. In addition, the IC50 in [3] (setting [6]) was found to be 5820 nM; in the test with HepG2 (setting [7]), 5620 nM; in [5] (Homo sapiens, read-out: IC50), 2540 nM; with A2780 (setting [9]), 2260 nM. The “growth inhibition (GI)” value in the test with BGC-823 was “inactive”.
Take `O=C1Nc2ccc(Cl)cc2/C1=C1/Nc2cc(F)c(F)cc2/C1=N\O`: in test [1], the inhibition amounted to 86%. Further, the IC50 amounted to 6400 nM in test [2] and 400 nM at CDK9/cyclin T1. Besides, the Ratio IC50 in the test listed under Homo sapiens came out at 15.

Broadly, the inhibition is the percentage by which the read-out fell short of the control. High values mean strong suppression, low ones little suppression. Usually IC50 stands for the midpoint of a concentration-inhibition curve.
